Source: US11958868B2, “Methods of using metal complexes to promote wound healing” (University of Macau, priority 2022, dated 2024)

Key:
[1] = target: T1, human recombinant VHL:ElonginB:ElonginC (VBC) complex (Homo sapiens, UniProt P40337); assay: Circular dichroism of VBC complex; format: binding; details: 3 μM in 1% DMSO
T1 construct: made in house

[2] = system: EPO, GLUT1 and VEGF in HIF-1α knockdown HEK293 cells; assay: HIF-1α knockdown assay in HEK293 cells; format: cell-based, Human; details: HIF-1α siRNA
Procedure: FIG. 3 depicts the effect of complex 1a on HIF-1α target gene products in cellulo. (A) Effect of complex 1a on specific proteins (GLUT1, VEGF, and EPO) mediated by HIF-1α in HEK293 cells. HEK293 cells were treated with 1a for 2 h. Cell lysis were collected and analyzed by the Western blotting. (B) Complex 1a has no effect on HIF-1α accumulation in a VHL null cancer cell line. A498 (VHL-null), or HEK293 cells were treated with 1% DMSO, 1a (3 μM), VH298 (100 μM), and FG-4592 (100 μM) for 2 h before lysis. (C) Effect of complex 1a on EPO, GLUT1, and VEGF levels in HEK293 cells with or without HIF-1α knockdown. Left: The expression levels of EPO, GLUT1, and VEGF in HEK293 cells with or without knockdown HIF-1α in the presence or absence of 1a. Right: Densitometry analysis of EPO, GLUT1, and VEGF levels on the Western blot. HIF-1α siRNA [sense, 5′-[…]-3′ (SEQ ID NO:1), antisense, 5′-[…]-3′ (SEQ ID NO:2)]. Negative control (NC) siRNA [sense, 5′-[…]-3′ (SEQ ID NO:3), antisense, 5′-[…]-3′ (SEQ ID NO:4)]. Data are expressed as means±SD (n=3 independent experiments), P values were calculated using a two-sided t-test. #P<0.05, P<0.01 HIF-1α siRNA vs. NC siRNA, *P<0.05, **P<0.01 1a vs. vehicle/DMSO group, respectively.
A knockdown assay was performed to further verify the on-target effect of complex 1a. EPO, GLUT1, and VEGF are target genes regulated by HIF-1α. […]

[3] = system: wound tissue of normal and diabetic mice; assay: Wound tissue analysis (H&E, Masson's trichrome, laser doppler, CD31, Western blot, qRT-PCR) in normal and diabetic mice; format: in vivo
Source text: (A) Timeline for in vivo experiments. (B) Image of representative wound (left) and wound closure rate (right) (n=5 mice). (C) H&E and Masson's trichrome staining of dorsal skin section and skin thickness from the top of the epidermis to the bottom of the dermis in mice after 8 days post-injury (n=4 mice). Scale bar=200 μm. (D) Laser doppler imager in dorsal skin: representative images were shown for each group (left) and baseline perfusion on back skin of mice (right) after 2 days post-injury (dotted line circle represents the wound bed in mice of each group and arrow represents perfusion intensity (n=5 mice). (E) CD31 and DAPI double staining in wound bed of mice after 8 days post-injury (n=4 mice). Scale bar=50 μm. Data are expressed as means±SD, P values were calculated using a one-way ANOVA with Tukey's multiple comparison test. #P<0.05, ##P<0.01 WT vs. db/db, *P<0.05, **P<0.01 1a vs. vehicle.
(A) Western blot analyses and quantitation of HIF-1α, VEGF, GLUT1, and EPO in wound tissue (n=3 mice). All proteins were normalized by β-actin. (B) The mRNA levels of HIF-1α target genes involved in wound healing were analyzed by qRT-PCR in wound tissues (n=5 mice). Data are expressed as means±SD, P values were calculated using a one-way ANOVA with Tukey's multiple comparison test. P<0.05, P<0.01 WT vs. db/db, *P<0.05, **P<0.01 1a vs. vehicle. S
The epithelial thickness of the regenerated skin in each group was compared using H&E staining and Masson's trichrome staining. […] One of the key processes related to wound healing is tissue angiogenesis.
After electrophoresis of protein samples (30 μg of total protein) on SDS-PAGE gels, the samples were transferred to a PVDF membrane and incubated at room temperature with blocking solution for 1 h. The membrane was treated with primary antibodies and incubated overnight at 4° C. After 1 h incubation with the secondary antibodies (Supplementary Table Sl), protein bands were visualized using ECL Western Blotting Detection Reagent (GE Healthcare).
After fixation in 4% paraformaldehyde, the skin samples were embedded in paraffin and sectioned ([…]). For histological evaluation, sections were deparaffinized and rehydrated followed by hematoxylin and eosin (H&E) and Masson's trichrome staining. For immunohistochemical staining of CD31, the wound tissue sections were deparaffinized and stained with CD31 antibody (1:1000; ABclonal, Cambridge, MA, USA). The slides were examined under ×400 magnification to identify the area with the highest vascular density, and five randomly high-power field areas of the highest microvessel density were selected for each section. The average was calculated as the microvessel density of this sample.

[4] = Stability in solution (1H NMR, UV/Vis); format: physicochemical; details: 298 K
Source text: Based on the structure of complex 1, a focused library of 14 cyclometalated Rh(III) and Ir(III) complexes containing different CAN or NAN donor ligands were designed and synthesized (1a-1n) (FIG. 1c). This library was enriched in the brpy CAN and dmeophen N^N ligands that were identified in the first round of screening to be favorable substructures for potency.

[5] = normal and diabetic mice, 8 days post-injury

T1 sequence (P40337 whole entry): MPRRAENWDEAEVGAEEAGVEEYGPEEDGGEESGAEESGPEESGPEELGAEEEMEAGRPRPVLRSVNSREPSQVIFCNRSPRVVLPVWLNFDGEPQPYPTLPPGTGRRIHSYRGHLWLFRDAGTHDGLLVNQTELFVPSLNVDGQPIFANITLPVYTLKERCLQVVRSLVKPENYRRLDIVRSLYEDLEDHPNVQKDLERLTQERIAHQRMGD
T1 sequence (Q15370 whole entry partner): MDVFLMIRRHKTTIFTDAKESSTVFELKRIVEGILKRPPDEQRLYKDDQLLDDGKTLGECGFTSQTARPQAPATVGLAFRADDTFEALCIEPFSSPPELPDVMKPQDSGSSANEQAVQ
T1 sequence (Q15369 whole entry partner): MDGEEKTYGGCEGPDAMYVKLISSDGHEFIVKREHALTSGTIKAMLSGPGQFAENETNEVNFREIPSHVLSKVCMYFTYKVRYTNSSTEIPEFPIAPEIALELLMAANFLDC

COc1cc[n+]2c3c1ccc1c(OC)cc[n+](c13)[Ir-3]213([c]2ccccc2-c2cccc[n+]21)[c]1ccccc1-c1cccc[n+]13.F[P-](F)(F)(F)(F)F [1a]
Circular dichroism signal of VBC complex [1]: distinct shift of the signal | Accumulation of EPO, GLUT1 and VEGF in HIF-1α knockdown cells compared with normal cells [2]: less able to increase the accumulation of EPO, GLUT1, and VEGF in HIF-1α knockdown cells | HIF-1α target genes in wound tissue, qRT-PCR, WT/NC mice ([3]; WT/NC mice): weaker effects | Expression of HIF-1α, VEGF, GLUT1 and EPO in wound tissue (Western blotting) ([3]; WT/NC, db/db, HFD/STZ and STZ groups, 8 days post-wounding, vs vehicle): significantly increased | HIF-1α target genes (HSP-90, VEGFR-1, SDF-1, SCF, Tie-2) in wound tissue, qRT-PCR, diabetic mice ([3]; diabetic mice): also increased in the wound tissue of 1a-treated diabetic mice | Microvessel density in wound areas (CD31 immunostaining) ([3]; normal and diabetic groups, 8 days post-injury): significantly enhanced microvessel density | Skin blood flow rate (skin perfusion pressure test) ([3]; normal and diabetic mice, 2 days post-injury): remarkably increased skin blood flow rate | Collagen deposition in wound areas [3, 5]: enhanced collagen deposition in wound areas | Skin thickness (H&E, Masson's trichrome) [3, 5]: increased skin thickness | Stability in [d6]DMSO/D2O (9:1) solution ([4]; 1H NMR spectroscopy): remarkable stability in a [d6]DMSO/D2O (9:1) solution for at least seven days | Stability in acetonitrile/H2O (9:1) solution ([4]; UV/Vis spectroscopy): for at least seven days
